Reference: patent publication US6512130B1, “Mifepristone analogue, process for the preparation thereof and use thereof” (Council of Scientific and Industrial Research, priority 2000, dated 2003)
Where “and” joins values, the source holds several entries; their conditions need not be identical. Equal entries are not always repeated.

target: T1, rabbit uterine progesterone receptor (Oryctolagus cuniculus, UniProt P06186); assay: Competitive binding assay for progesterone receptors using rabbit uterine cytosol and 3H-progesterone; conditions: rabbit uterine cytosol, 3H-progesterone 8×10^−9 M, 1 μM unlabelled cortisol, 4° C. 20 hours; progesterone taken as 100
T1 construct: performed using rabbit uterine cytosol and 3H progesterone (radioligand); from tissue; host or cells: uterus of immature, estradiol-dipropionate-primed rabbits; 105000 x g cytosol treated with dextran-coated charcoal
T1 sequence (P06186 1-930): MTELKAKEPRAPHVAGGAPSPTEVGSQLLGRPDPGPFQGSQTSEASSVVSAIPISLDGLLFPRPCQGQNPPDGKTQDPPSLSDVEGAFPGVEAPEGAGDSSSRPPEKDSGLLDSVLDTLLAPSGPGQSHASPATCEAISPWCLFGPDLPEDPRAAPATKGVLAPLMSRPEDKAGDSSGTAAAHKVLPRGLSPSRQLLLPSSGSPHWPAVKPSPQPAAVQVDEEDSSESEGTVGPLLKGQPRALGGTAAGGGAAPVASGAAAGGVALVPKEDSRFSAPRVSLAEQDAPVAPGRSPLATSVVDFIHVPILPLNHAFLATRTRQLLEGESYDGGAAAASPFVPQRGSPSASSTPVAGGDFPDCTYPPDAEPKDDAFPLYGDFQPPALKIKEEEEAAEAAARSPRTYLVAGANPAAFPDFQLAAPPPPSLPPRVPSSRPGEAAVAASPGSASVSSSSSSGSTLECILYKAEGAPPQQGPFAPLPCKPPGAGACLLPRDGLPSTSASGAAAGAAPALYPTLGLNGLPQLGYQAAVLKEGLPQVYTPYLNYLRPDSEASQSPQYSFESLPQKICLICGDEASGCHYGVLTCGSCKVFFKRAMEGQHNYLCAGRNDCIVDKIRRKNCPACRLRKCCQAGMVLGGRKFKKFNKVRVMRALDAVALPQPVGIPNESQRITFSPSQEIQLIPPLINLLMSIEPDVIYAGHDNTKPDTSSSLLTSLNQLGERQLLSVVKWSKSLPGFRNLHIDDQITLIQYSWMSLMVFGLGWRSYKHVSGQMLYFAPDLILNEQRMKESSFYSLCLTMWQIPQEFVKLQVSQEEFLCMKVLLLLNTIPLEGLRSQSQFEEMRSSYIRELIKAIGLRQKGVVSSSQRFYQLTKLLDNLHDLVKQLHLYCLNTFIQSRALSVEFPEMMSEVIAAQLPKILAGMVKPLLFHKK
Description: Crude products 3, 4, and 5 may be purified by column chromatography using silica gel, basic alumina, acidic alumina or neutral alumina as adsorbants and ethyl acetate, ethyl acetate-benzene, or ethyl acetate-chloroform as solvent systems. […] The competitive binding assay for progesterone receptors (PR) was performed using rabbit uterine cytosol and 3H progesterone (radioligand) in the presence of unlabelled cortisol at 4° C. Competitor dilutions were prepared in DMF:Tris buffer pH 7.4 (1:1). […] The activity of progesterone is taken as 100.
Animals. Immature rabbits weighing about 1 kg were administered 100 μg estradioldipropionate intramuscularly for four days and were sacrificed on the fifth day. Uteri were removed, washed with ice cold saline and weighed. Uteri were homogenised in four volumes of 50 mM Tris buffer, pH 7.4 containing 1 mM EDTA, 12 mM monothioglycerol and 10% glycerol (v/v) at 2° C. using polytron PT-10 homoniser.
The homogenate was ultracentrifuged at 105000×g for 60 minutes at 4° C. The resultant supernatant (cytosol) was treated with equal volume of dextran coated charcoal (0.5% charcoal and 0.05% dextran in TEMG buffer) for 30 minutes with occasional stirring at 0° C. DCC treated cytosol was used for binding assay.
Prior to the assay, cytosol was Incubated with 1 μM unlabelled cortisol for 30 minutes at 0° C. Aliquots of the cytosol were incubated at 4° C. for 20 hours with a constant concentration of ^3H-progesterone (8×10^−9 M) in the absence or presence of increasing concentration (1 to 10000×10^−9 M) of either unlabelled progesteroine or test compounds. ^3H-progesterone bound was measured for each incubate by the technique of charcoal adsorption.
Calculation of relative binding affinity of test compounds was done by plotting the curves between the percentage of bound titrated progesterone as a function of the iogarithm of the unlabelled progesterone concentration and as a function of logarithm of the concentration of unlabelled test compounds (FIGS. 1 and 2). […]

Row | Compound | Relative binding affinity (%)
1 | CC(C)C#C[C@]1(O)CCC2C3CCC4=CC(=O)CCC4=C3C(c3ccc(N(C)C)cc3)C[C@@]21C (stereo partly drawn) [Compound 1, 11β-[4-(N,N-dimethylamino)phenyl]-17β-hydroxy-17α-(3-methyl-1-butynyl)-estra-4,9-dien-3-one] | 174.65%
2 | CC#C[C@]1(O)CC[C@H]2[C@@H]3CCC4=CC(=O)CCC4=C3[C@@H](c3ccc(N(C)C)cc3)C[C@@]21C [Compound 6, Mifepristone] | 103% and 103.44%
3 | CC(=O)[C@H]1CC[C@H]2[C@@H]3CCC4=CC(=O)CC[C@]4(C)[C@H]3CC[C@]12C [Progesterone] | 100%
